Data: patent publication US20050014700A1, “Cbi analogues of cc-1065 and the duocarmycins” (priority 2001, published 2005)
Like-named read-outs stand apart in the source and are kept apart here.

What was measured:
[1] = tested on: w794 duplex DNA (SV40 nucleosomal DNA insert in M13mp10); assay: DNA alkylation efficiency and selectivity, thermally-induced strand cleavage of 5′ end-labeled duplex DNA (PAGE); type: biochemical; settings: for concentration at which DNA alkylation is detectable: 25° C., 24 hours
Description: The DNA alkylation properties of the compounds including those of CBI-X9-Y9 (24), CBI-X11-Y9 (25) and CBI-X10-Y10 (26) (FIG. 7) were examined within a 150 base-pair segment of duplex DNA and compared with (+)-duocarmycin SA (2), (+)-CBI-CDPI2 (27) and (+)-CBI-indole2 (28). One clone of phage M13mp10 was selected for the study that contained the SV40 nucleosomal DNA insert w794 (nucleotide no. 5238-138) (Ambrose, C., et al., J. Mol. Biol. 1989, 210, 255). The alkylation site identification and the assessment of the relative selectivity among the available sites was obtained by thermally-induced strand cleavage of the singly 5′ end-labeled duplex DNA after exposure to the agents. After treatment of the end-labeled duplex DNA with a range of agent concentrations, the unbound agent was removed by EtOH precipitation of the DNA. Redissolution of the DNA in aqueous buffer, thermolysis (100° C., 30 min) to induce strand cleavage at the sites of DNA alkylation, denaturing high resolution polyacrylamide gel electrophoresis (PAGE) adjacent to Sanger dideoxynucleotide sequencing standards, and autoradiography led to identification of the DNA cleavage and alkylation sites (Boger, D. L., et al., Tetrahedron 1991, 47, 2661).
The preparation of singly ^32P 5′ end-labeled double-stranded DNA, the agent binding studies, gel electrophoresis, and autoradiography were conducted according to procedures described in full detail elsewhere.^28 Eppendorf tubes containing the 5′ end-labeled DNA (9 μL) in TE buffer (10 mM Tris, 1 mM EDTA, pH 7.5) were treated with the agent in DMSO (1 μL at the specified concentration). The solution was mixed by vortexing and brief centrifugation and subsequently incubated at 25° C. for 24 hours. The covalently modified DNA was separated from the unbound agent by EtOH precipitation and resuspended in TE buffer (10 μL). The solution of DNA in an Eppendorf tube sealed with Parafilm was warmed at 100° C. for 30 min to introduce cleavage at the alkylation sites, allowed to cool to 25° C., and centrifuged. Formamide dye (0.03% xylene cyanol FF, 0.03% bromophenol blue, 8.7% Na2EDTA 250 mM) was added (5 μL) to the supernatant. Prior to electrophoresis, the sample was denatured by warming at 100° C. for 5 min, placed in an ice bath, and centrifuged, and the supernatant (3 μL) was loaded directly onto the gel. Sanger dideoxynucleotide sequencing reactions were run as standards adjacent to the reaction samples. Polyacrylamide gel electrophoresis (PAGE) was run on an 8% sequencing gel under denaturing conditions (8 M urea) in TBE buffer (100 mM Tris, 100 mM boric acid, 0.2 mM Na2EDTA) followed by autoradiography.

L1210 [2] = assay: cellular functional assay for L1210 cytotoxic activity; type: cell-based
Procedure: For comparison, the L1210 IC50 for (+)-N-Boc-CBI, which lacks an attached DNA binding domain, is 80 nM (80,000 pM).

[3] = tested on: w794 duplex DNA (SV40 nucleosomal DNA insert in M13mp10); settings: cited from earlier work; for DNA alkylation efficiency compared to parent (+)-CBI-CDPI (21) / DNA alkylation selectivity compared to parent (+)-CBI-CDPI (21): previous study
L1210 [4] = settings: previous study; additional heteroatom in carboxylate bearing aromatic ring; cited from earlier work

For `NC(=O)N1CCc2c1ccc1[nH]c(C(=O)N3CCc4c3ccc3[nH]c(C(=O)N5C[C@H]6C[C@@]67C5=CC(=O)c5ccccc57)cc43)cc21` [compound 27, (+)-CBI-CDPI2], which “alkylation of the minor 5′-ACTAA-3′ site” value ([1]; w794 DNA) is on record?
Its value is “neither 27 or 28 alkylate the minor 5′-ACTAA-3′ site to a significant extent”.

Which IC50 (L1210 [2]) does the source give for `CC(C)(C)OC(=O)N1CC2CC23C1=CC(=O)c1ccccc13` (single isomer, unassigned; (+)) [(+)-N-Boc-CBI] here?
Its IC50 is 80000 pM.

What does the source list for “1-(Chloromethyl)-5-hydroxy-3-{[4-[4-(tert-Butoxycarbonylamino)-1-methylpyrrol-2-yl)carbonyl]amino-1-methylpyrrol-2-yl]carbonyl}-1,2-dihydrobenzo[e]indole [X10-Y10]”?
IC50 (L1210 [2]): 440 pM; DNA alkylation effectiveness relative to N-Boc-CBI ([1]; comparable reaction conditions): 10-100 fold; lower DNA alkylation efficiency compared to 25 ([1]; w794 DNA): 100-1000 fold; concentration at which DNA alkylation is detectable ([1]; w794 DNA): 10^−3 M

For (+)-CBI-indole2 [compound 28], which “alkylation of the minor 5′-ACTAA-3′ site” value ([1]; w794 DNA) is on record?
The value was “neither 27 or 28 alkylate the minor 5′-ACTAA-3′ site to a significant extent”.

With (+)-CBI-CDPI [compound 21] as the compound, how does the “alkylation of the minor 5′-ACTAA-3′ site” value ([3]; w794 DNA, prior study) read?
Its value is “does”.

Which IC50 (L1210 [2]) does the source give for “1-(Chloromethyl)-5-hydroxy-3-{[3-[4-(tert-Butoxycarbonylamino)-1-methylpyrrol-2-yl)-carbonyl]-1,2-dihydro(3H-pyrrolo[3,2-e]indol)-7-yl)carbonyl}-1,2-dihydrobenzo[e]indole [X11-Y10]” here?
The IC50 was 5 pM.

Which IC50 (L1210 [2]) does the source give for “1-(Chloromethyl)-5-hydroxy-3-{[3-[2-(tert-Butoxycarbonylamino-1,3-thiazol-4-yl) carbonyl]-1,2-dihydro(3H-pyrrolo[3,2-e]indol)-7-yl)carbonyl}-1,2-dihydrobenzo[e]indole [X11-Y7]” here?
The IC50 was 5 pM.

Which “decrease in cytotoxic activity relative to (+)-CBI-CDPI (21)” value (L1210 [4]) does the source give for (+)-CBI-CDPBI here?
The value was 40 fold.

What about the “DNA alkylation efficiency compared to parent (+)-CBI-CDPI (21)” value [3] of the same compound?
Its value is “analogous decrease in the DNA alkylation efficiency”.

What about the “DNA alkylation selectivity compared to parent (+)-CBI-CDPI (21)” value [3] of the same compound?
The value was “no alteration in the alkylation selectivity”.

For (+)-CBI-CDPBO, which “decrease in cytotoxic activity relative to (+)-CBI-CDPI (21)” value (L1210 [4]) is on record?
Its value is 40 fold.

And the “DNA alkylation efficiency compared to parent (+)-CBI-CDPI (21)” value [3]?
Its value is “analogous decrease in the DNA alkylation efficiency”.

What about the “DNA alkylation selectivity compared to parent (+)-CBI-CDPI (21)” value [3] of the same compound?
The value was “no alteration in the alkylation selectivity”.

With `CC(C)(C)OC(=O)Nc1ccc2[nH]c(C(=O)N3CCc4c3ccc3[nH]c(C(=O)N5CC(CCl)c6c5cc(O)c5ccccc65)cc43)cc2c1` (centres unmarked) [X11-Y14, 1-(Chloromethyl)-5-hydroxy-3-{[3-[5-(tert-Butoxycarbonylaminoindole-2-yl)carbonyl]-1,2-dihydro(3H-pyrrolo[3,2-e]indol)-7-yl)carbonyl}-1,2-dihydrobenzo [e]indole] as the compound, how does the IC50 (L1210 [2]) read?
The IC50 was 7 pM.

With “1-(Chloromethyl)-5-hydroxy-3-{[4-[4-(tert-Butoxycarbonylaminothiophen-2-yl)carbonyl]aminothiophen-2-yl]carbonyl}-1,2-dihydrobenzo[e]indole [X8-Y8]” as the compound, how does the IC50 (L1210 [2]) read?
The IC50 was 290 pM.

With `Cn1cc(NC(=O)OC(C)(C)C)nc1C(=O)Nc1cn(C)c(C(=O)N2CC(CCl)c3c2cc(O)c2ccccc32)n1` (centres unmarked) [compound 24] as the compound, how does the “concentration at which DNA alkylation is detectable” value ([1]; w794 DNA) read?
The value was > 10^−3 M.

Which IC50 (L1210 [2]) does the source give for `CC(C)(C)OC(=O)N1CCc2c1ccc1[nH]c(C(=O)N3CCc4c3ccc3[nH]c(C(=O)N5CC(CCl)c6c5cc(O)c5ccccc65)cc43)cc21` (centres unmarked) [X11-Y11] here?
The IC50 was 5 pM.
